# Measurements published in publication PMC5549482, “Activation of Endocannabinoid Receptor 2 as a Mechanism of Propofol Pretreatment-Induced Cardioprotection against Ischemia-Reperfusion Injury in Rats” (Oxidative Medicine and Cellular Longevity, 2017).
# Target: T1, fatty acid amide hydrolase (FAAH) (Homo sapiens, UniProt O00519)
# T1 construct: human recombinant FAAH
# T1 sequence (O00519 1-579): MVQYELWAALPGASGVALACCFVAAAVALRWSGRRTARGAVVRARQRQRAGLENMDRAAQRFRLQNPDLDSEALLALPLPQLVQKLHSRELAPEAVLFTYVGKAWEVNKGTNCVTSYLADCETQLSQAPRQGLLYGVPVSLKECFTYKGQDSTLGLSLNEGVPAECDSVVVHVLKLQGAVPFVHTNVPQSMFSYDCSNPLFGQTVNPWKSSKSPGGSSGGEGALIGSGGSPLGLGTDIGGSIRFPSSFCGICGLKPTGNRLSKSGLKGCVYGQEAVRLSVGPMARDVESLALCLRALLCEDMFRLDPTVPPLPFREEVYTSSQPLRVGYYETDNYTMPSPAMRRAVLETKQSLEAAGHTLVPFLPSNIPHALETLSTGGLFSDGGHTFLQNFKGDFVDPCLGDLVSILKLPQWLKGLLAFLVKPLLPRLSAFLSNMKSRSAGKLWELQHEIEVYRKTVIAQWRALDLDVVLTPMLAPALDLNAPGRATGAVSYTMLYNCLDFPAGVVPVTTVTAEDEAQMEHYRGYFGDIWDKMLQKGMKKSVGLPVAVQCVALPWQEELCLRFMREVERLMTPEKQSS
# Experiment: fluorescence FAAH inhibitor screening kit (Cayman), AMC arachidonoyl amide substrate, […] propofol
# Format: biochemical
structure (smiles),measurement,value
CC(C)c1cccc(C(C)C)c1O [propofol],IC50,~28 µM
